Assay results as given in BindingDB's records for doi:10.1016/j.bioorg.2013.09.002 (Ewha Womans University, 2013).
Where a SMILES comes first, the peptide text is derived from it. The star is where a group is joined. Cbz = O=C(OCc1ccccc1)*; CH2F = FC*

Legend:
[1] = target: T1, Calpain-1 catalytic subunit (Homo sapiens, UniProt P07384); assay: µ-Calpain Inhibition Assay; details: pH 7.5; 25 °C
T1 sequence (P07384 whole entry): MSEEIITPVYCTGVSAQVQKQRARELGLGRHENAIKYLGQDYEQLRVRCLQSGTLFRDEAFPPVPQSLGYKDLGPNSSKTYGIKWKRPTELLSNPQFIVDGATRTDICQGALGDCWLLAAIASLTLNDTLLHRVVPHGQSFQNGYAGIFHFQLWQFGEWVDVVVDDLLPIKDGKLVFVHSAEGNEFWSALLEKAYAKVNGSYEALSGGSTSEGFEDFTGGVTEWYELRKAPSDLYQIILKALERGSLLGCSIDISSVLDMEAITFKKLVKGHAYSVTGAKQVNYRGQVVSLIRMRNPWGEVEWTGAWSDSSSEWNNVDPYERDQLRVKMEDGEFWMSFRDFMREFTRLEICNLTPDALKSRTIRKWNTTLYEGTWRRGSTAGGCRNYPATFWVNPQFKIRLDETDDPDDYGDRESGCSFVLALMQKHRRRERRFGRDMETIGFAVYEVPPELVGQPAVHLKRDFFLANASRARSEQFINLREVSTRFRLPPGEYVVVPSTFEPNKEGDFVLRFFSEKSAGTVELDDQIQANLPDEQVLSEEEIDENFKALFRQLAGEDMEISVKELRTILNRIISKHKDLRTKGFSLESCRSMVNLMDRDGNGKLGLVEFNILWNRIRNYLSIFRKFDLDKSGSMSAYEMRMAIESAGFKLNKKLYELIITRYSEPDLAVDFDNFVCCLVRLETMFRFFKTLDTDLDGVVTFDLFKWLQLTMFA
Experimental: The reaction was initiated by sequential addition of substrate A, µ-calpain, each compound, and finally a CaCl2 solution. The reaction mixture (100 µL) was incubated at room temperature for 30 min with shaking. Fluorescence intensities were measured at 320 nm excitation and 420 nm emission wavelengths.

[2] = target: T2, Calpain-2 catalytic subunit (Homo sapiens, UniProt P17655); assay: m-Calpain Inhibition Assay; details: pH 7.5; 25 °C
T2 sequence (P17655 whole entry): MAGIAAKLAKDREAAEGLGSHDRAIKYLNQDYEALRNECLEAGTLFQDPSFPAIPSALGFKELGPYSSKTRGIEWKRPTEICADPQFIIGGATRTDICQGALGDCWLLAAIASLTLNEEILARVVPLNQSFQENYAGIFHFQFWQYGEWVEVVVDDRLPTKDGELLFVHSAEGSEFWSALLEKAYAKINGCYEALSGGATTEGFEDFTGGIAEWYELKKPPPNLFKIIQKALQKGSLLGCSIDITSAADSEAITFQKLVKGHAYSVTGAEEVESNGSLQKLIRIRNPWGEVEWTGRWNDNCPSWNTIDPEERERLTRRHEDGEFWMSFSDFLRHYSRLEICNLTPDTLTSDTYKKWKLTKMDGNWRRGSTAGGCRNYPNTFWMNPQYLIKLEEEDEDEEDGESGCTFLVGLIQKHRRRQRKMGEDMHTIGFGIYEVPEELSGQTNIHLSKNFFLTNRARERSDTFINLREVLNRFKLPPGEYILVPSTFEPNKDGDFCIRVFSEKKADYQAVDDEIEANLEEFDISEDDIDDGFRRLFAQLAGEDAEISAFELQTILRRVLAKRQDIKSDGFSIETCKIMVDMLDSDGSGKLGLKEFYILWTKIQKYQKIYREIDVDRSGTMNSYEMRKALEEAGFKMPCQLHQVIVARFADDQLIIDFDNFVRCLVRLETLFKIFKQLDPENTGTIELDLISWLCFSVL
Experimental: Inhibition of m-calpain was assayed in the reaction buffer (50 mM Tris-HCl, 100 mM NaCl, 5 mM β-mercaptoethanol, and 1 mM EDTA, pH 7.5) with 50 µM substrate B, 5 mM CaCl2 and 2.88 U/mL m-calpain. The reaction was initiated by sequential addition of substrate B, m-calpain, each compound, and finally a CaCl2 solution. The reaction mixture (100 µL) was incubated at room temperature for 30 min with shaking. Fluorescence intensities were measured at 320 nm excitation and 420 nm emission wavelengths. MDL28170 was used as a positive control for µ- and m-calpain inhibition.

Procathepsin L = Procathepsin L (Homo sapiens, UniProt P07711); assay: Cathepsin L Inhibition Assay; details: pH 5.5; 37 °C
Experimental: Inhibition of cathepsin L was assayed in reaction buffer (0.1M NaOAc-HCl, 1 mM EDTA, 0.1% β-mercaptoethanol, pH 5.5) containing 20 µM substrate and 4 nM cathepsin L. Z-FR-AMC was used as a substrate for […]. Cathepsin L was activated by incubation in assay buffer at 37 °C for 30 min prior to initiation of the reaction by addition of the substrate and test compound. The reaction mixture was then incubated at room temperature for 30 min with shaking. Fluorescence intensities were measured at 360 nm excitation and 450 nm emission wavelengths.

Procathepsin L, sequence (P07711 whole entry): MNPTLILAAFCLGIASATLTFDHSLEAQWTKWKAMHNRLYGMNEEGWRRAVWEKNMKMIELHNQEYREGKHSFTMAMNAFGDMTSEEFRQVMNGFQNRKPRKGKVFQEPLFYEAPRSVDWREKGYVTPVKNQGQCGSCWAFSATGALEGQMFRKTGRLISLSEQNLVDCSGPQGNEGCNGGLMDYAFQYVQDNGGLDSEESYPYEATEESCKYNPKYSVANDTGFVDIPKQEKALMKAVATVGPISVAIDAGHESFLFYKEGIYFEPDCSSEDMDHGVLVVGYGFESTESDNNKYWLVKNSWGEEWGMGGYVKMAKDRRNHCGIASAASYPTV

IC50 [1] [µM] | IC50 [2] [µM] | IC50 (Procathepsin L) [µM] | Structure (SMILES)
> 100 | > 100 | > 100 | O=C(/C=C/c1ccco1)c1cc(O)cc(O)c1 [1-(3,5-Dihydroxyphenyl)-3-(furan-2-yl)propenone (21)]
> 100 | 60.2 | 2.8 | O=C(/C=C/c1ccc(O)cc1O)c1cccs1 [3-(2,4-Dihydroxyphenyl)-1-(thiophen-2-yl)propenone (13)]
> 100 | > 100 | > 100 | O=C(/C=C/c1cccs1)c1cc(O)cc(O)c1 [1-(3,5-Dihydroxyphenyl)-3-(thiophen-2-yl)propenone (20)]
> 100 | > 100 |  | CCCNC(=O)[C@H]1O[C@@H]1C(=O)N[C@H](C(=O)N1CCC[C@H]1C(=O)O)[C@@H](C)CC [CA074]
> 100 | > 100 | > 100 | O=C(/C=C/c1ccccn1)c1ccc(O)cc1O [1-(2,4-Dihydroxyphenyl)-3-(pyridin-2-yl)propenone (8)]
86.7 | 25.4 | 90.5 | O=C(/C=C/c1ccco1)c1ccc(O)cc1O [1-(2,4-Dihydroxyphenyl)-3-(furan-2-yl)propenone (10)]
> 100 | > 100 | > 100 | O=C(/C=C/c1ccoc1)c1cc(O)cc(O)c1 [1-(3,5-Dihydroxyphenyl)-3-(furan-3-yl)propenone (24)]
 | 0.15 |  | CC(C)C(NC(=O)OCc1ccccc1)C(=O)NC(C=O)Cc1ccccc1 [benzyl N-[(1S)-2-methyl-1-[(1-oxo-3-phenylpropan-2-yl)carbamoyl]propyl]carbamate] (Cbz-Val-Phe-aldehyde; configuration not given here)
0.397 | 0.418 |  | O=C(NC(Cc1ccccc1)C(=O)NC(Cc1ccccc1)C(=O)CF)OCc1ccccc1 (stereo not drawn) [benzyl N-[1-[(4-fluoro-3-oxo-1-phenylbutan-2-yl)amino]-1-oxo-3-phenylpropan-2-yl]carbamate] (Cbz-Phe-Phe-CH2F; configuration not given here)
> 100 | > 100 | > 100 | O=C(/C=C/c1cccnc1)c1ccc(O)cc1O [1-(2,4-Dihydroxyphenyl)-3-(pyridin-3-yl)propenone (7)]
> 100 | 97.3 | > 100 | O=C(/C=C/c1ccsc1)c1cc(O)cc(O)c1 [1-(3,5-Dihydroxyphenyl)-3-(thiophen-3-yl)propenone (23)]
> 100 | > 100 | 2.87 | O=C(/C=C/c1ccc(O)cc1O)c1ccco1 [3-(2,4-Dihydroxyphenyl)-1-(furan-2-yl)propenone (14)]
> 100 | > 100 | 44.4 | O=C(/C=C/c1ccncc1)c1ccc(O)cc1O [1-(2,4-Dihydroxyphenyl)-3-(pyridin-4-yl)propenone (6)]
> 100 | > 100 | > 100 | O=C(/C=C/c1ccccc1)c1cc(O)cc(O)c1 [1-(3,5-Dihydroxyphenyl)-3-phenylpropenone (22)]
56.2 | 39.9 | 53 | O=C(/C=C/c1cccs1)c1ccc(O)cc1O [1-(2,4-Dihydroxyphenyl)-3-(thiophen-2-yl)propenone (9)]
